Assay results reported in patent US5973228A, “Coniferin beta-glucosidase cDNA for modifying lignin content in plants” (University of British Columbia, priority 1998, dated 1999).

Legend:
[1] = molecular target: T1, native coniferin beta-glucosidase (CBG) purified from pine xylem (Pinus contorta, UniProt Q9ZT64); assay: β-glucosidase assay, substrate specificity of coniferin β-glucosidase purified from pine xylem; format: biochemical; conditions: substrate hydrolysis relative to coniferin; 100% activity represents 14pKat; 2 mM glucoside substrate, 0.2M MES pH 5.5, 30° C., 30 min
T1 construct: from tissue; host or cells: Pinus contorta xylem
T1 sequence (Q9ZT64 24-513): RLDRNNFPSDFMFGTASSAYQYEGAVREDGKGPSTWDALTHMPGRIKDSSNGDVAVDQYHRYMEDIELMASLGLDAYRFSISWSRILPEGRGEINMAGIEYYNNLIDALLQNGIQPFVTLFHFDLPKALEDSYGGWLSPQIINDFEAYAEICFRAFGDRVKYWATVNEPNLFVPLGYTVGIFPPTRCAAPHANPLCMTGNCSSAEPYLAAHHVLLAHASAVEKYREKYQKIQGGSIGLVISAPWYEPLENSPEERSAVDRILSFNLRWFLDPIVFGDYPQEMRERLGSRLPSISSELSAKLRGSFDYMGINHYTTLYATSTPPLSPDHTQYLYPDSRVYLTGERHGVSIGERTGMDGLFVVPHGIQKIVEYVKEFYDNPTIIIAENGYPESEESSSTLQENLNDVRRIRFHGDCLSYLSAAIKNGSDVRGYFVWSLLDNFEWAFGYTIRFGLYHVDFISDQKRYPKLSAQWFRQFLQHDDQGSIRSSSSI
Excerpt: Coniferin beta-glucosidase enzyme was purified from Pinus contorta xylem tissue as described by Dharmwardhana et al. (1995). In order to determine the N-terminal amino acid sequence of the purified enzymne, it was run on native PAGE gels, stained for activity on the synthetic coniferin substrate VRA-G and the staining band excised and subjected to SDS-PAGE. The protein was then transferred to an Immobilon membrane for N-terminal amino acid sequencing using an Applied Biosystems 470A gas phase sequencer (Edman degradation).
(§1) As noted above, the functional characteristic of the CBG enzyme is its ability to hydrolyze coniferin. This activity can be measured using the simple β-glucosidase assay described by Dharwardhana et al. (1995), conducted as follows: enzyme preparations (10-50 μl) and glucoside substrate (coniferin) (2 mM final concentration) in 0.2M MES, pH 5.5 buffer in a final volume of 150 μl are incubated at 30° C. for 30 min. The reaction is stopped by basification of the assay mixture with an equal volume of 0.5M CAPS buffer (Sigma Chemical Co., St. Louis, Mo., pH 10.5 and the activity measured by determining the absorbance of the released aglycone. The activity of the enzyme can be measured not only against coniferin, but also against related glucosides including 4-NPG, 2-NPG, MUG and the synthetic coniferin analog VRA-G. For quantitative calculations, the following analysis wavelengths and values (mM^-1 ×cm^-1) were used: coniferyl alcohol, 325 nm, ε=7.0; sinapyl alcohol, 315 nm, ε=11.2; 2-nitrophenol, 420 nm, ε=4.55, 4-nitrophenol, 400 nm, ε=19.3; 4-methyl umbelliferone, 360 nm, ε=18.25; VRA-G, 490 nm, ε=38.6; salicyl alcohol, 295 nm, ε=3.3.

[2] = molecular target: T2, E. coli-expressed (recombinant) coniferin beta-glucosidase (CBG) (Pinus contorta, UniProt Q9ZT64); assay: β-glucosidase assay, substrate specificity of E. coli-expressed CBG-cDNA; format: biochemical; conditions: substrate hydrolysis relative to coniferin; 100% activity represents 22pKat; 2 mM glucoside substrate, 0.2M MES pH 5.5, 30° C., 30 min
T2 construct: coding region for the mature protein (i.e. excluding the signal peptide) was amplified; Met-Ala-Ser (three non-CBG vector residues) (N); made in house; host or cells: E. coli BL21 (DE3), vector pET21a
T2 sequence (Q9ZT64 24-513): T1 sequence (Q9ZT64 24-513)
Excerpt: To express CBG protein in E. coli, the full- length coding region for the mature protein (i.e. excluding the signal peptide) was amplified using the 3' end clone (1A6) as the template with the N-terminal primer, NT1 (5' […] 3', Seq. I.D. No. 9) containing a 5' Nhe1 site, and a C-terminal primer, CT1 (5' […] 3', Seq. I.D. No. 10) containing a Xho 1 site. The resulting 1.5 kb DNA fragment was ligated into Bluescript II KS by T/A cloning as described above. The structure of the junctions of this construct was confirmed by sequencing and it was then inserted as a Nhe1/Xho1 fragment into expression vector pET21a (Novagen). Because, the Nhe1 site was used to introduce the cDNA into the pET vector, three non-CBG amino acids (Met, Ala, Ser) were added to the N-terminus of the expressed protein. To avoid the expression of the vector His-tag at the 3' end, the native stop codon of CBG was included. The expressed protein was thus identical in sequence to the mature CBG expressed in planta, except for the additional tripeptide at the N-terminus. Following transformation into E.coli strain DH5α and verification of the plasmid integrity by restriction digestion, it was introduced into the expression host BL21 (DE3).
To express CBG, the bacteria were grown to log phase (A600 =0.6-0.9) followed by an additional 2-3 h incubation at 29-37° C. in the presence or absence of 0.4-1 mM IPTG. The expressed CBG in the soluble protein fraction was purified by preparative Q-Sepharose chromatography followed by QMA-Memsep (Millipore) chromatography.
as §1
Soluble proteins and insoluble proteins (inclusion bodies) prepared from induced and uninduced bacterial cells were assayed for coniferin hydrolysis activity by the method described above. […] The activity in this fraction could be increased up to 2-fold by increasing the IPTG concentration from 0.4 -1.0 mM, and by reducing the growing temperature from 37° C. to 29° C. […] This protein was purified by anion exchange chromatography using coniferin as the substrate for monitoring β-glucosidase activity. The purified enzyme often migrated as a doublet on nondenaturing gels. […] The latter would result in the synthesis of a polypeptide that is truncated at the N-terminus, as opposed to the full-length polypeptide initiated by ribosome binding to the standard ribosome binding site in the vector.

SMILES	Relative activity, Native CBG [1]	Relative activity, E. coli CBG [2]
O=[N+]([O-])c1ccccc1O[C@@H]1O[C@H](CO)[C@@H](O)[C@H](O)[C@H]1O [2-nitrophenyl-β-glucoside, 2-nitrophenyl β-glucoside]	51%	50%
Cc1cc(=O)oc2cc(O[C@@H]3O[C@H](CO)[C@@H](O)[C@H](O)[C@H]3O)ccc12 [4-methyl umbelliferyl-β-glucoside, 4-methylumbelliferyl β-glucoside]	18%	20%
O=[N+]([O-])c1ccc(O[C@@H]2O[C@H](CO)[C@@H](O)[C@H](O)[C@H]2O)cc1 [4-nitrophenyl-β-glucoside, 4-nitrophenyl β-glucoside]	30%	35%
COc1cc(/C=C/CO)ccc1O[C@@H]1O[C@H](CO)[C@@H](O)[C@H](O)[C@H]1O [coniferin]	100%	100%
COc1cc(/C=C/CO)cc(OC)c1O[C@@H]1O[C@H](CO)[C@@H](O)[C@H](O)[C@H]1O [syringin]	51%	65%
